Several values for one entry are separate records, joined by “and”; a condition that tells them apart may be missing. Equal entries are not always repeated. Where two headings read alike, the source gives them in different places.
Columns and labels:
[1] = molecular target: T1, CDK12–cyclin K and DDB1 (Homo sapiens, UniProt Q16531+Q9NYV4, K965R); assay: TR-FRET ternary complex formation assay (compound titration); format: binding; conditions: for TR-FRET signal at compound concentration: replicate titrations
T1 construct: His6–CDK12 (a.a. 713–1,052); full-length or beta-propeller B domain deletion (ΔBPB: a.a. 396–705 deleted) constructs of His6–DDB1ΔBPB, StrepII–Avi–DDB1, or His6–Spy–DDB1; made in house; host or cells: Trichoplusia ni High Five insect cells (baculovirus)
T1 sequence (Q9NYV4 713-1052 K965R): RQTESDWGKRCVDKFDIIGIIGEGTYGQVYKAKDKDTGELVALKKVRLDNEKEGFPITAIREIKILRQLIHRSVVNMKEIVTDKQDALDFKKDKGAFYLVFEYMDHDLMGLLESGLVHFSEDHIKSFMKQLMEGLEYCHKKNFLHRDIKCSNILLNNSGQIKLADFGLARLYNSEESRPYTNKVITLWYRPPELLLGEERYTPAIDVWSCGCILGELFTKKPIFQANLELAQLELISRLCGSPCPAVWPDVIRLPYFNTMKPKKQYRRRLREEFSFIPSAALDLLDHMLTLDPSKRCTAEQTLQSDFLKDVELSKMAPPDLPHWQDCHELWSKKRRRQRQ
T1 sequence (O75909 1-267 partner): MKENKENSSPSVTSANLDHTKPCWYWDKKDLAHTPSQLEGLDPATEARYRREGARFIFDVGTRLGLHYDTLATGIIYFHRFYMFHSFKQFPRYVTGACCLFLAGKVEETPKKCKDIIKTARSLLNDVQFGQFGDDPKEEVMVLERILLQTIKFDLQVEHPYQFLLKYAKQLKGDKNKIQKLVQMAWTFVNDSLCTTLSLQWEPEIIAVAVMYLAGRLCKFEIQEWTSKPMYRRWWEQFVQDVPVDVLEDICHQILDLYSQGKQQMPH
T1 sequence (Q16531 whole entry): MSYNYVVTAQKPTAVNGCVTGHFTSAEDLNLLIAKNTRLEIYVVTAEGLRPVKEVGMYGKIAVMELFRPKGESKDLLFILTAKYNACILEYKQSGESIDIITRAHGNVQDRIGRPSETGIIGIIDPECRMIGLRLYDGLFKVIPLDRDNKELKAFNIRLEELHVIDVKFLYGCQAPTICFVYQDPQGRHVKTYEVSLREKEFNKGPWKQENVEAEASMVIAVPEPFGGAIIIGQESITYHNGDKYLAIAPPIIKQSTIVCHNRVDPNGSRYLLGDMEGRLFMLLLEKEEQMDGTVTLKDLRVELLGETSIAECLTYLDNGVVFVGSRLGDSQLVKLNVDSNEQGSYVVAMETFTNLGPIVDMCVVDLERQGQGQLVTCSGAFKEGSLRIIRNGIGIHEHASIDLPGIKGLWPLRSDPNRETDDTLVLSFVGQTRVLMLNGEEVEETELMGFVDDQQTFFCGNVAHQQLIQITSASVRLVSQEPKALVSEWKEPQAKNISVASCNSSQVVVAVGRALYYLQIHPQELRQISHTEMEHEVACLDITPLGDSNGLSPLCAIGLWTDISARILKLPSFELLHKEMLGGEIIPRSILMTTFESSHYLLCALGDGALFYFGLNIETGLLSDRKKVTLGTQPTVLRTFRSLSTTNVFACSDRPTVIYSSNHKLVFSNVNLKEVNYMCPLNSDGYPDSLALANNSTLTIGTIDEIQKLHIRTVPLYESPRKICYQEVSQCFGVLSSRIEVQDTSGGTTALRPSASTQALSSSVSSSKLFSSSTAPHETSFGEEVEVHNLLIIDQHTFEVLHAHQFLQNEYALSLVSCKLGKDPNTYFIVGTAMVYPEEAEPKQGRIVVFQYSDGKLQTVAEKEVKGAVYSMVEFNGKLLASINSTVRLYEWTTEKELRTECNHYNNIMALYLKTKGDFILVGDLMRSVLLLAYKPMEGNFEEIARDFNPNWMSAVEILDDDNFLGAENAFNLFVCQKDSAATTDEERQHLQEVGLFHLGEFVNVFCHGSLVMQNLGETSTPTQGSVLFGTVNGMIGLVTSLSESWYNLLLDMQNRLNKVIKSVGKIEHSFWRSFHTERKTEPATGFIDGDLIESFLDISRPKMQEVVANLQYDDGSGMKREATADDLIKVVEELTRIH
Outline: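 Read-out used a 70 μs delay to cut background fluorescence; TR-FRET signal taken as the 520 nm/490 nm emission ratio.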

[2] = test system: HEK293T cells; assay: Drug sensitivity assay (CellTiter-Glo viability) with or without MLN4924 pretreatment; format: cell-based, human; conditions: for Toxicity rescue / EC50: Supplementary Table 2; for Toxicity rescue: MLN4924-mediated cytotoxicity rescue, 10 µM used where n.d.; for EC50: Homo sapiens, HEK-293T, HEK293T viability, 72 h, compound alone, read-out: Cellular assays EC50
Outline: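 HEK293T–Cas9 cells at 0.15 × 10^6 ml^−1 were treated with DMSO or 100 nM MLN4924 before plating. Test drugs were added 2 h later and exposure lasted 3 days. Viability was read by CellTiter-Glo luminescence and expressed relative to DMSO controls.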

[3] = test system: cyclin K–eGFP degradation reporter; assay: Cyclin K reporter stability analysis (dual-color cyclin K–eGFP reporter); format: cell-based, human; conditions: for reporter assay signal (normalized): replicates
Procedure: HEK293T–Cas9 cells expressing the cyclin K–eGFP degradation reporter were resuspended at 1 × 10^6 ml^−1 and 50 µl of cell suspension was seeded in non-cell-culture-treated 384-well plates. Shortly after, cells were treated with drug or DMSO for 5 h. […] The fluorescent signal was quantified by flow cytometry (LSRFortessa flow cytometer, BD Biosciences). Using FlowJo (flow cytometry analysis software, BD Biosciences), the geometric mean of the eGFP and mCherry fluorescent signal for round and mCherry-positive cells was calculated. The ratio of eGFP to mCherry was normalized to the average of three DMSO-treated controls.

[4] = compound concentration 79.2001 nM
[5] = compound concentration 158.4 nM
[6] = compound concentration 309.6 nM
[7] = compound concentration 626.401 nM
[8] = compound concentration 1252.8 nM
[9] = compound concentration 9936.01 nM
[10] = compound concentration 20016 nM
[11] = sheet MOESM7, read-out: log TR-FRET EC50 (converted)

CCc1cnn2c(NCc3ccc[n+]([O-])c3)cc(N3CCCC[C@H]3CCO)nc12 [Dinaciclib]
TR-FRET signal at compound concentration 0.468 nM ([1]; compound concentration 0.468 nM, raw replicate titration data): 0.1026 and 0.1033
TR-FRET signal at compound concentration 2.16 nM ([1]; compound concentration 2.16 nM, raw replicate titration data): 0.1211 and 0.1202
TR-FRET signal at compound concentration 3.6 nM ([1]; compound concentration 3.6 nM, raw replicate titration data): 0.158 and 0.1569
TR-FRET signal at compound concentration 4.68 nM ([1]; compound concentration 4.68 nM, raw replicate titration data): 0.141 and 0.164
TR-FRET signal at compound concentration 7.92001 nM ([1]; compound concentration 7.92001 nM, raw replicate titration data): 0.229 and 0.2182
TR-FRET signal at compound concentration 15.84 nM ([1]; compound concentration 15.84 nM, raw replicate titration data): 0.3288 and 0.3136
TR-FRET signal at compound concentration 21.6 nM ([1]; compound concentration 21.6 nM, raw replicate titration data): 0.2804 and 0.3137
TR-FRET signal at compound concentration 30.96 nM ([1]; compound concentration 30.96 nM, raw replicate titration data): 0.3522 and 0.3143
TR-FRET signal at compound concentration 36 nM ([1]; compound concentration 36 nM, raw replicate titration data): 0.3155 and 0.3474
TR-FRET signal at compound concentration 62.6401 nM ([1]; compound concentration 62.6401 nM, raw replicate titration data): 0.2879 and 0.2897
TR-FRET signal at compound concentration 79.2001 nM ([1]; compound concentration 79.2001 nM, raw replicate titration data): 0.2612 and 0.2943
TR-FRET signal at compound concentration 125.28 nM ([1]; compound concentration 125.28 nM, raw replicate titration data): 0.2755 and 0.2904
TR-FRET signal at compound concentration 158.4 nM ([1]; compound concentration 158.4 nM, raw replicate titration data): 0.2643 and 0.2881
TR-FRET signal at compound concentration 244.8 nM ([1]; compound concentration 244.8 nM, raw replicate titration data): 0.2809 and 0.2743
TR-FRET signal at compound concentration 309.6 nM ([1]; compound concentration 309.6 nM, raw replicate titration data): 0.2462 and 0.2819
TR-FRET signal at compound concentration 626.401 nM ([1]; compound concentration 626.401 nM, raw replicate titration data): 0.2417 and 0.2805
TR-FRET signal at compound concentration 993.601 nM ([1]; compound concentration 993.601 nM, raw replicate titration data): 0.2627 and 0.2615
TR-FRET signal at compound concentration 1252.8 nM ([1]; compound concentration 1252.8 nM, raw replicate titration data): 0.2431 and 0.2774
TR-FRET signal at compound concentration 2001.6 nM ([1]; compound concentration 2001.6 nM, raw replicate titration data): 0.2535 and 0.232
TR-FRET signal at compound concentration 2448 nM ([1]; compound concentration 2448 nM, raw replicate titration data): 0.2678 and 0.2721
TR-FRET signal at compound concentration 9936.01 nM ([1]; compound concentration 9936.01 nM, raw replicate titration data): 0.2509 and 0.2771
TR-FRET signal at compound concentration 20016 nM ([1]; compound concentration 20016 nM, raw replicate titration data): 0.2402 and 0.253
viability assay signal (normalized) ([2]; 5 nM, + MLN4924): 0.8664 and 0.8028
viability assay signal (normalized) ([2]; 5 nM, without MLN4924): 0.9657 and 1.0645
viability assay signal (normalized) ([2]; 10.7 nM, + MLN4924): 0.7659 and 0.6765
viability assay signal (normalized) ([2]; 10.7 nM, without MLN4924): 0.9934 and 0.9758
viability assay signal (normalized) ([2]; 22.9 nM, + MLN4924): 0.3817 and 0.3517
viability assay signal (normalized) ([2]; 22.9 nM, without MLN4924): 0.3511 and 0.381
viability assay signal (normalized) ([2]; 48.9 nM, + MLN4924): 0.2784 and 0.2759
viability assay signal (normalized) ([2]; 48.9 nM, without MLN4924): 0.2851 and 0.2898
viability assay signal (normalized) ([2]; 105 nM, + MLN4924): 0.2848 and 0.2647
viability assay signal (normalized) ([2]; 105 nM, without MLN4924): 0.2976 and 0.3085
viability assay signal (normalized) ([2]; 224 nM, + MLN4924): 0.2797 and 0.277
viability assay signal (normalized) ([2]; 224 nM, without MLN4924): 0.291 and 0.2867
viability assay signal (normalized) ([2]; 478 nM, + MLN4924): 0.2746 and 0.2757
viability assay signal (normalized) ([2]; 478 nM, without MLN4924): 0.3016 and 0.2883
viability assay signal (normalized) ([2]; 2190 nM, + MLN4924): 0.2646 and 0.2589
viability assay signal (normalized) ([2]; 2190 nM, without MLN4924): 0.2893 and 0.2745
viability assay signal (normalized) ([2]; 4680 nM, + MLN4924): 0.2516 and 0.2662
viability assay signal (normalized) ([2]; 4680 nM, without MLN4924): 0.2682 and 0.2734
viability assay signal (normalized) ([2]; 10000 nM, + MLN4924): 0.2413 and 0.2482
viability assay signal (normalized) ([2]; 10000 nM, without MLN4924): 0.239 and 0.2604
Toxicity rescue [2]: -12%
reporter assay signal (normalized) ([3]; 5 nM): 0.9772 and 0.948
reporter assay signal (normalized) ([3]; 10.7 nM): 0.9389 and 0.9407
reporter assay signal (normalized) ([3]; 22.9 nM): 0.9927 and 0.9745
reporter assay signal (normalized) ([3]; 48.9 nM): 0.9927 and 0.9772
reporter assay signal (normalized) ([3]; 105 nM): 0.9863 and 0.9964
reporter assay signal (normalized) ([3]; 224 nM): 1.014 and 1.0155
reporter assay signal (normalized) ([3]; 478 nM): 0.99 and 1.01
reporter assay signal (normalized) ([3]; 2190 nM): 0.9881 and 0.9945
reporter assay signal (normalized) ([3]; 4680 nM): 1.022 and 0.99
reporter assay signal (normalized) ([3]; 10000 nM): 1.044 and 1.03
cyclin K reporter degradation, result in words ([3]; HEK293T): non-degrading
DC50 ([3]; read-out: Cellular assays DC50, Supplementary Table 2, HEK293T cycK-eGFP reporter, 5 h): > 10 µM

CC[C@H](CO)Nc1nc(NCc2cnc(-c3ccccn3)cc2C2OCCO2)c2ncn(C(C)C)c2n1 [WX4]
TR-FRET signal at compound concentration ([1]; compound concentration 4.68 nM): 0.2788 and 0.2836
TR-FRET signal at compound concentration ([1]; compound concentration 21.6 nM): 0.5021 and 0.5027
TR-FRET signal at compound concentration ([1]; compound concentration 36 nM): 0.8511 and 0.8473
TR-FRET signal at compound concentration [1, 4]: 1.261 and 1.263
TR-FRET signal at compound concentration [1, 5]: 1.515 and 1.577
TR-FRET signal at compound concentration [1, 6]: 1.862 and 1.944
TR-FRET signal at compound concentration [1, 7]: 2.0566 and 2.128
TR-FRET signal at compound concentration [1, 8]: 2.108 and 2.242
TR-FRET signal at compound concentration ([1]; compound concentration 2448 nM): 2.161 and 2.2916
TR-FRET signal at compound concentration [1, 9]: 2.174 and 2.318
TR-FRET signal at compound concentration [1, 10]: 2.132 and 2.191
EC50 ([1]; in vitro complex formation, 50 nM CDK12–cyclin K, 100 nM DDB1, text and figures, read-out: TR-FRET EC50): 79 ± 6 nM
EC50 [1, 11]: 78.5 nM
EC50 ([1]; source data sheet correlations, read-out: TR-FRET EC50): 78.5 nM
EC50 [2]: 1180 nM
Toxicity rescue [2]: 432%
DC50 ([3]; source data sheet correlations, read-out: DC50): 0.365 µM

CC[C@H](CO)Nc1nc(NCCCC2CCCC2)c2ncn(C(C)C)c2n1 [DS33]
EC50 ([1]; Supplementary Table 2, read-out: TR-FRET EC50 TR-FRET): 1270 nM
TR-FRET signal, individual replicate ([1]; compound concentration 4.68 nM): 0.2064 and 0.239
TR-FRET signal, individual replicate ([1]; compound concentration 21.6 nM): 0.2251 and 0.2479
TR-FRET signal, individual replicate ([1]; compound concentration 36 nM): 0.2332 and 0.272
TR-FRET signal, individual replicate [1, 4]: 0.2704 and 0.303
TR-FRET signal, individual replicate [1, 5]: 0.3276 and 0.3592
TR-FRET signal, individual replicate [1, 6]: 0.4277 and 0.464
TR-FRET signal, individual replicate [1, 7]: 0.5723 and 0.6562
TR-FRET signal, individual replicate [1, 8]: 0.7875 and 0.9047
TR-FRET signal, individual replicate ([1]; compound concentration 2448 nM): 1.007 and 1.15
TR-FRET signal, individual replicate [1, 9]: 1.305 and 1.477
TR-FRET signal, individual replicate [1, 10]: 1.367 and 1.47
EC50 [1, 11]: 1270 nM
EC50 [2]: > 10000 nM
Toxicity rescue [2]: 0%
DC50 ([3]; Supplementary Table 2, HEK293T cycK-eGFP reporter, 5 h, read-out: Cellular assays DC50): > 10 µM

From article PMC10746543, “Design principles for cyclin K molecular glue degraders” (Nature Chemical Biology, 2023)
